Assay results taken from the supplement of paper PMC11208160.

experiment: recombinant UMI read abundance after kanamycin selection (control-corrected) (log10(CPM+1)); higher = more efficient recombination; extreme values may be limits of the assay; sequences stand for … in AGTGCAGAGAAAATCGGCCAGTTTTCTCTGCCTGCAGTCCGCATGCCGTGGGACCCCTTGGGTTCTAACCTGTTGCCTAGATTTATGCAGCGGACTGCCTTTCTCCCAAAGTGATAAACCGG…AGGTTGGTTTCACT; site = the 11-nt donor
Procedure, shortened: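 Under IPTG (0.07 mM) plus kanamycin, or without selection, Escherichia coli carrying a UMI-tagged donor and donor-binding-loop pair library and a target plasmid for the IS621 bridge recombinase were plated in two replicates. Recombinant UMIs were PCR-amplified across the donor–target junction and sequenced. Counts were converted to CPM, averaged over replicates, scaled by control-derived factors and reported as log10(CPM+1).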
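Further: IS621 bridge recombinase in Escherichia coli cells against a fixed T5 target plasmid.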

Sequence	recombinant UMI read abundance (log10)
CACTTGGCATGGACCGGTTTTCCCGGTAATCCGTATTTGGA (site CACTTGTCTTC)	0.78
GAAGATTCATGGACCGGTTTTCCCGGTAATCCGTATTTGAT (site GAAGATTCTAT)	2.48
GGATAGGCATGGACCGGTTTTCCCGGTAATCCGTATTTGCC (site GGATAGCCTGG)	0.855
TACCTTCCATGGACCGGTTTTCCCGGTAATCCGTATTTGGC (site TACCTTCCTGC)	0
ATGTCCTCATGGACCGGTTTTCCCGGTAATCCGTATTTGTA (site ATGTCCTCTTA)	2.5
GCTCTATCATGGACCGGTTTTCCCGGTAATCCGTATTTGCT (site GCTCTATCTAG)	2.04
TAACGCACATGGACCGGTTTTCCCGGTAATCCGTATTTGTA (site TAACGCACTTA)	1.61
CCGTTAGCATGGACCGGTTTTCCCGGTAATCCGTATTTGTG (site CCGTCAGCTCA)	0.0147
ACTAGTGCATGGACCGGTTTTCCCGGTAATCCGTATTTGGT (site ACTAGAGCTAC)	1.08
TTCCGAACATGGACCGGTTTTCCCGGTAATCCGTATTTGGT (site TTCCGAACTAC)	0.00692
ATGAGGCCATGGACCGGTTTTCCCGGTAATCCGTATTTGAC (site ATGAGGCCTGT)	0.716
TGGTTATCATGGACCGGTTTTCCCGGTAATCCGTATTTGGT (site TGGTTATCTAC)	1.78
ACATCGACATGGACCGGTTTTCCCGGTAATCCGTATTTGTG (site ACATCAACTCA)	0.397
ACATGAACATGGACCGGTTTTCCCGGTAATCCGTATTTGAC (site ACATGAACTGT)	2.71
CCGTTAGCATGGACCGGTTTTCCCGGTAATCCGTATTTGTG (site CCGTTAGCTCA)	0.386
AAATTCCCATGGACCGGTTTTCCCGGTAATCCGTATTTGGT (site AAATTCCCTAC)	0
CACGCCCCATGGACCGGTTTTCCCGGTAATCCGTATTTGTT (site CACGGCCCTAA)	0
CGTTTGACATGGACCGGTTTTCCCGGTAATCCGTATTTGAG (site CGTTGGACTCT)	0.0522
ACCTCAGCATGGACCGGTTTTCCCGGTAATCCGTATTTGGG (site AGCTCAGCTCC)	0.0171

Sequence	recombinant UMI read abundance (log10)
ACATGCGCATGGACCGGTTTTCCCGGTAATCCGTATTTGGT (site ACATGCGCTAC)	1.02
GGAGTTGCATGGACCGGTTTTCCCGGTAATCCGTATTTGGT (site GGAGTCGCTAC)	1.05
GTATGCGCATGGACCGGTTTTCCCGGTAATCCGTATTTGAA (site GTATGCGCTTT)	1.66
AACCGTCCATGGACCGGTTTTCCCGGTAATCCGTATTTGGT (site AACCGTCCTAC)	0.0164
GTATGCGCATGGACCGGTTTTCCCGGTAATCCGTATTTGTA (site GTATGCGCTTA)	2.35
GGCCACCCATGGACCGGTTTTCCCGGTAATCCGTATTTGTT (site GGCCAACCTAA)	0.0287
AGGAAGACATGGACCGGTTTTCCCGGTAATCCGTATTTGCA (site TGGAAAACTTG)	0.756
TGCTAGGCATGGACCGGTTTTCCCGGTAATCCGTATTTGAT (site TGCTAGGCTAT)	0.326
AACCAAACATGGACCGGTTTTCCCGGTAATCCGTATTTGTC (site AACCAAACTGA)	0
AGGAAGACATGGACCGGTTTTCCCGGTAATCCGTATTTGTA (site AGGAAGACTTC)	0.521
CAGTATCCATGGACCGGTTTTCCCGGTAATCCGTATTTGTT (site CGGAATCCTAA)	0.00316
CCCCACACATGGACCGGTTTTCCCGGTAATCCGTATTTGGA (site CCCCACACTTT)	0
TACAATACATGGACCGGTTTTCCCGGTAATCCGTATTTGCA (site TAGAATACTTG)	0
GCCCCGCCATGGACCGGTTTTCCCGGTAATCCGTATTTGTA (site GCCCCGCCTTA)	0.478
ATGTATGCATGGACCGGTTTTCCCGGTAATCCGTATTTGGC (site ATGTAAGCTGC)	1.52
GACCAGCCATGGACCGGTTTTCCCGGTAATCCGTATTTGTT (site GACCAGCCTAA)	0
AAGCACACATGGACCGGTTTTCCCGGTAATCCGTATTTGGG (site AAGCACACTCC)	0.242
TTTCGAGCATGGACCGGTTTTCCCGGTAATCCGTATTTGCA (site TTTCGAGCTTG)	1.31
TGGTAGGCATGGACCGGTTTTCCCGGTAATCCGTATTTGGT (site TGGTAGGCTAC)	0.848

Sequence	recombinant UMI read abundance (log10)
AGGAAGACATGGACCGGTTTTCCCGGTAATCCGTATTTGCA (site AGGCAGACTTG)	1.49
CGAGTCACATGGACCGGTTTTCCCGGTAATCCGTATTTGGG (site CAAGTCACTCC)	0.0136
TGCTTATCATGGACCGGTTTTCCCGGTAATCCGTATTTGTG (site TGCTTATCTCA)	1
TCTGCGGCATGGACCGGTTTTCCCGGTAATCCGTATTTGCT (site TGTGCGGCTAG)	0.0168
TGTCCAGCATGGACCGGTTTTCCCGGTAATCCGTATTTGTG (site TGTCCAGCTCA)	0.0483
TAGGAGTCATGGACCGGTTTTCCCGGTAATCCGTATTTGCG (site TAGGATTCTCG)	0.951
GTGCATGCATGGACCGGTTTTCCCGGTAATCCGTATTTGCT (site GTGCATGCTAA)	0.00274
AGAAAGACATGGACCGGTTTTCCCGGTAATCCGTATTTGTA (site AGAAAGACTTA)	2.51
GCTAGCACATGGACCGGTTTTCCCGGTAATCCGTATTTGCT (site GCTAGCACTAG)	1.64
ACTAGTGCATGGACCGGTTTTCCCGGTAATCCGTATTTGGT (site ACTAGTGCTAC)	1.55
GTTGTTCCATGGACCGGTTTTCCCGGTAATCCGTATTTGCT (site GTTGTTCCTAG)	0
ATGTAGTCATGGACCGGTTTTCCCGGTAATCCGTATTTGGC (site ATGTAGGCTGC)	0
CCATGACCATGGACCGGTTTTCCCGGTAATCCGTATTTGGA (site CCATGACCTTC)	0.023
AGGACTACATGGACCGGTTTTCCCGGTAATCCGTATTTGTC (site AGGACTACTGA)	2
TAGCTAGCATGGACCGGTTTTCCCGGTAATCCGTATTTGAA (site TAGCGAGCTTT)	0.0252
ATATGGACATGGACCGGTTTTCCCGGTAATCCGTATTTGAC (site ATATGGACTGT)	2.7
TCTGTGGCATGGACCGGTTTTCCCGGTAATCCGTATTTGCC (site TCTGTGGCTGG)	0
GACGGCCCATGGACCGGTTTTCCCGGTAATCCGTATTTGTT (site GACGGCCCTAA)	0
CTGTCGACATGGACCGGTTTTCCCGGTAATCCGTATTTGGG (site CAGTCGACTCC)	0.00865
